From patent EP4768477A1 (Yichang Humanwell Pharmaceutical Co., Ltd., priority 2024, dated 2025)
Where no end group is shown, it is not given here.

Tests used:
[1] = test system: formalin-induced inflammatory pain model; parameters: species or system SD rats; settings: rat, in vivo
[2] = test system: gastrointestinal peristalsis; test: Effect on gastrointestinal peristalsis (charcoal propulsion); settings: 3 mg/kg, single subcutaneous injection, SD rats
[3] = target: T1, hKOR (Homo sapiens, UniProt P41145); test: Agonistic function, cAMP method, 293-KOR cells; format: cell-based; settings: forskolin
T1 construct: expressed in transfected cells; host or cells: Human embryonic kidney cells 293 (293-KOR)
Experimental: • a. […] Prepare 8 × drug-containing solution with buffe. • c. […] Incubate for 1 h at room temperature. • j.

T1 sequence (P41145 whole entry): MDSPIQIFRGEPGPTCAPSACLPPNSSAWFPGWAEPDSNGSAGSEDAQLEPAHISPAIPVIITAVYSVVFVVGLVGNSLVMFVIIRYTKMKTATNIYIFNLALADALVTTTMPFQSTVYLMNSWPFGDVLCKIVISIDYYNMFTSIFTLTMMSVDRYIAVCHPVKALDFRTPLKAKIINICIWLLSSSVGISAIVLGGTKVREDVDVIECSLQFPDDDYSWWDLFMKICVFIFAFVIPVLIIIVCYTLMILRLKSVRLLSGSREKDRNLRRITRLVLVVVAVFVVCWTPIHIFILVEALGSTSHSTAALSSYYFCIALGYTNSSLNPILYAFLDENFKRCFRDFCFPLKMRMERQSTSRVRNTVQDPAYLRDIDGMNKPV

CN1CC[C@]23c4c5ccc(O)c4O[C@H]2[C@@H](O)C=C[C@H]3[C@H]1C5 [Morphine]
MPE% [1]: 75.9±28.9 %
effect on the gastrointestinal peristalsis in rats (charcoal propulsion rate) [2]: significant inhibitory effect

YGGFLRRIRP [Dynorphin A1-10]
EC50 [3]: 0.65 nM
Emax [3]: 102%
